Source: PubChem BioAssay AID2202554 (NIEHS Division of Translational Toxicology (DTT))
Records with an inconclusive call do not appear. Calls of active or inactive are those of the source. The rule behind the calls is not given here.

These compounds were tested on S. typhimurium/E. coli reverse mutation, colony counts (assay: Bacterial reverse mutation test (aka Ames test) summary data).
Summary of the method: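 S. typhimurium his⁻ strains (TA97–TA1538) and E. coli WP2 uvrA pKM101 trp⁻, dosed over a range with or without rat, hamster or mouse liver S9. Preincubated 20 min at 37° C (or plate incorporation), plated in agar, incubated usually two days. Revertant colonies counted against negative controls.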

SMILES | outcome
O=Cc1ccc(CO)o1 | active; weakly positive
CC(=O)c1ccc(Cl)c(Cl)c1Cl | active; positive
CC1CO1 (centres undefined) | active; positive
O=C(NO)c1ccccc1 | active; positive
CNC(C)Cc1ccccc1 (centres undefined) | inactive; negative
Oc1cccc2cccnc12 | active; positive
O.O.O.O.O.O.O=[N+]([O-])[O-].O=[N+]([O-])[O-].O=[N+]([O-])[O-].[La+3] | inactive; negative
O=C1CCc2ccccc2O1 | inactive; negative
NC(=S)Nc1ccccc1 | inactive; negative
CNCCS(=O)(=O)O | inactive; negative
Clc1c(Cl)c(Br)c2c(c1Cl)-c1nc-2nc2[n-]c(nc3nc(nc4[n-]c(n1)c1c(Cl)c(Br)c(Cl)c(Br)c41)-c1c(Cl)c(Cl)c(Br)c(Cl)c1-3)c1c(Br)c(Cl)c(Br)c(Cl)c21.[Cu+2] | active; positive
NCCNCCNCCNCCN | active; positive
CCCCC(=O)OCC | inactive; negative
O=C(O)C(Br)Br | active; positive
C(=C\c1ccccc1)/c1ccccc1 | inactive; negative
CCCCCCCCCCCCCCCCC1CO1 (centres undefined) | inactive; negative
COc1ccccc1[N+](=O)[O-] | active; positive
CN(Cc1cnc2nc(N)nc(N)c2n1)c1c(Cl)cc(C(=O)N[C@@H](CCC(=O)O)C(=O)O)cc1Cl | active; weakly positive
CCCCOCC1CO1 (centres undefined) | active; positive
N[C@@H](CCC(=O)O)C(=O)O | inactive; negative
Cc1ccc(C)c([N+](=O)[O-])c1 | active; positive
CCCCCCCCCCCC[S][Sn]([CH2]CCC)([CH2]CCC)[S]CCCCCCCCCCCC | inactive; negative
CC(C)CNCC(C)C | inactive; negative
Cc1ccc(Cl)cc1N | inactive; negative
CCCCOCCOCCOCc1cc2c(cc1CCC)OCO2 | inactive; negative
Oc1c(Cl)c(Cl)cc(Cl)c1Cl | inactive; negative

SMILES | outcome
Cc1cccc(C)c1[N+](=O)[O-] | active; weakly positive
O=[N+]([O-])c1cc(Cl)c(Cl)c(Cl)c1 | active; positive
Cc1nc2ccc(Cl)cc2[nH]1 | active; positive
O=Nc1ccc(Nc2ccccc2)cc1 | active; weakly positive
CC(C)[N+](=O)[O-] | active; positive
CN(C)C(=S)N(C)C | inactive; negative
O=C1c2ccccc2-c2ccc3c4c(ccc1c24)-c1ccccc1C3=O | inactive; negative
O=[N+]([O-])C(Br)=Cc1ccccc1 | active; positive
C=CC(=O)OCCCCCCOC(=O)C=C | inactive; negative
C=C(C)C(=O)OCC | inactive; negative
CC(C)(C)OOC(=O)c1ccccc1 | active; positive
O=C(O)CBr | active; positive
O=C(O)C=Cc1ccc(O)c(O)c1 | inactive; negative
CC(N)=S | inactive; negative
CCCCCCCC/C=C\CCCCCCCC(=O)N(CCO)CCO | inactive; negative
C=CC(=O)OCC(C)C | inactive; negative
CC(C)Br | active; positive
O=C1OC2(c3cc(Br)c(O)c(Br)c3Oc3c2cc(Br)c(O)c3Br)c2c(Cl)c(Cl)c(Cl)c(Cl)c21 | active; positive
O=C(O)c1ccc(C(=O)O)cc1 | inactive; negative
CCOC(=O)OCC | inactive; negative
CC(C)CO | inactive; negative
O.O=C([O-])c1ccccn1.O=C([O-])c1ccccn1.O=C([O-])c1ccccn1.[Cr+3] | inactive; negative
CCn1c2ccccc2c2cc(N)ccc21 | active; positive
C=CCOCC1CO1 (centres undefined) | active; positive
CC(C)(c1ccc(OCC2CO2)cc1)c1ccc(OCC2CO2)cc1 (centres undefined) | active; positive
Cc1cc(O)c2c(c1)C(=O)c1cc(O)cc(O)c1C2=O | active; positive

SMILES | outcome
CCCCCCCCCCCCCCCCCCCCCCCCCCCCO | inactive; negative
COC(=O)c1ccccc1N | inactive; negative
CCC(C)=O | inactive; negative
ClSC(Cl)(Cl)Cl | active; positive
COc1ccc(CCC(=O)c2c(O)cc(O[C@@H]3O[C@H](CO)[C@@H](O)[C@H](O)[C@H]3O[C@@H]3O[C@@H](C)[C@H](O)[C@@H](O)[C@H]3O)cc2O)cc1O | inactive; negative
Cc1ccc(C)c(N)c1 | active; positive
C | inactive; negative
Oc1ccc2c(c1)OCO2 | inactive; negative
Nc1ccn([C@H]2CC[C@@H](CO)O2)c(=O)n1 | active; weakly positive
Cc1ccc(N=Nc2c(O)ccc3ccccc23)c([N+](=O)[O-])c1 | active; positive
Nc1ccc2cc3ccccc3cc2c1 | active; positive
N#CCCl | inactive; negative
CCCCCCC(=O)OCC | inactive; negative
c1ccc(OP(Oc2ccccc2)Oc2ccccc2)cc1 | inactive; negative
CC(Cl)CCl (centres undefined) | active; weakly positive
Cc1cccc([N+](=O)[O-])c1C(=O)O | active; positive
c1ccc2c(c1)-c1cccc3c1c-2cc1ccccc13 | active; positive
CCc1ccc(N)cc1 | inactive; negative
OCC(O)CI (centres undefined) | active; positive
C#C[C@]1(O)CC[C@H]2[C@@H]3CCc4cc(O)ccc4[C@H]3CC[C@@]21C | inactive; negative
[CH3][Hg+] | inactive; negative
Nc1ccc(-c2ccc(N)cc2S(=O)(=O)O)c(S(=O)(=O)O)c1 | inactive; negative
O=C1c2c(O)cccc2Cc2cccc(O)c21 | inactive; negative
COc1ccc(C(Cl)=C(c2ccc(OC)cc2)c2ccc(OC)cc2)cc1 | inactive; negative
CC(C)(C)OO | active; positive
CCCCOCCO | inactive; negative

SMILES | outcome
CC1(C)CC(N=C=O)CC(C)(CN=C=O)C1 (centres undefined) | inactive; negative
c1ccc(Nc2ccccc2)cc1 | inactive; negative
Cc1ccc(N(C)C)cc1 | inactive; negative
Nc1ccc(Cl)cc1[N+](=O)[O-] | active; positive
NC=O | inactive; negative
OCC(O)CCl (centres undefined) | active; positive
CC(=O)c1cc(C)oc1C | active; positive
CNC(=O)NC | inactive; negative
CCC(C)C | inactive; negative
CN(C)CCOC(C)(c1ccccc1)c1ccccn1 (centres undefined) | inactive; negative
CCCNC(C)C(=O)Nc1ccccc1C (centres undefined) | inactive; negative
c1ccc2n[nH]nc2c1 | active; weakly positive
O=P1(N(CCCl)CCCl)NCCCO1 (centres undefined) | active; positive
COc1ccc2cc3[n+](cc2c1OC)CCc1cc2c(cc1-3)OCO2 | inactive; negative
COc1cc(CNC(=O)CCCC/C=C/C(C)C)ccc1O | inactive; negative
CCCC(CCC)C(=O)O | inactive; negative
Cc1c(O)c(Br)c(Br)c(Br)c1Br | inactive; negative
CCOC(=O)CC(SP(=O)(OC)OC)C(=O)OCC (centres undefined) | inactive; negative
OCCOCCOCCO | active; positive
O=C1C2CC=CCC2C(=O)N1SC(Cl)(Cl)Cl (centres undefined) | active; positive
Cc1ccc(C#N)cc1 | inactive; negative
O=c1[nH]c(=O)[nH]c(=O)[nH]1 | inactive; negative
COc1c2occc2cc2ccc(=O)oc12 | active; positive
O=c1oc2c(O)c(O)cc3c(=O)oc4c(O)c(O)cc1c4c23 | inactive; negative
NC(=S)NNC(N)=S | inactive; negative
O=S(O)c1ccc(Cl)cc1 | inactive; negative

SMILES | outcome
CC(C)(COCC1CO1)COCC1CO1 (centres undefined) | active; positive
Nc1c(Br)cc([N+](=O)[O-])cc1[N+](=O)[O-] | active; positive
N#CCCCCC#N | inactive; negative
S=C=S | inactive; negative
Cc1ccccc1C#N | inactive; negative
Nc1nc(-c2ccccc2)cs1 | active; positive
CC(C)[C@]12CC(=O)[C@H](C)[C@H]1C2 | inactive; negative
CN(C)C(=O)Cl | active; positive
Oc1cccc2cc3cccc(O)c3c(O)c12 | inactive; negative
O=C1OC(c2ccc(O)cc2)(c2ccc(OC3O[C@H](C(=O)O)[C@@H](O)[C@H](O)[C@H]3O)cc2)c2ccccc21 (some centres undefined) | inactive; negative
CCOCCOC(C)=O | active; positive
C=C(C)C(=O)OCCCCCCCCCC | inactive; negative
O=C(Cc1ccccc1)OCc1ccccc1 | inactive; negative
CCNc1cc(O)ccc1C | active; positive
Cc1ccc2nc(-c3ccc(N)cc3)sc2c1S(=O)(=O)O | active; positive
Oc1ccccc1 | inactive; negative
COc1ccc(N)cc1N | active; positive
CN=C=O | inactive; negative
O=[N+]([O-])c1ccccc1O | inactive; negative
Nc1ccc(-c2ccc(N)cc2)cc1 | active; positive
[O]=[Cr](=[O])([OH])[O][Cr](=[O])(=[O])[OH] | active; positive
COC(=O)c1ccccc1C(=O)OC | inactive; negative
CCCCCCCCCCCCOS(=O)(=O)O | inactive; negative
ClC1=C(Cl)C2(Cl)C3C(Cl)C=CC3C1(Cl)C2(Cl)Cl (centres undefined) | inactive; negative
Cc1ccc2c(c1N)C(=O)c1ccccc1C2=O | active; positive
